Results reported in article PMC9551036, “A selective and orally bioavailable VHL-recruiting PROTAC achieves SMARCA2 degradation in vivo” (Nature Communications, 2022).
In brackets after ≈: the same amount, converted by molar mass. Several values for one entry are separate records, joined by “and”; a condition that tells them apart may be missing. Identical values can stand only once. Like-named read-outs stand apart in the source and are kept apart here.

How the values were obtained:
[1] = system: VCB: PROTAC: SMARCA2^BD ternary complex; experiment: TR-FRET ternary complex affinity and cooperativity, SMARCA2; format: binding, human; conditions: ratio TR-FRET EC50 / TR-FRET EC50 +VCB measured in the same run, SMARCA2BD
[2] = system: Caco-2 cell monolayer; experiment: Bidirectional permeability measurement in Caco-2 cells; format: in vitro ADME; conditions: for Modified Caco-2 Pab + PGPi (Zosuquidar): Modified Caco-2, a to b; for Modified Caco-2 Pba + PGPi (Zosuquidar) / Modified Caco-2 Pba: Modified Caco-2, b to a; for Caco-2 Pba: Caco-2, b to a
Protocol: Bidirectional permeability of test compounds across a Caco-2 cell monolayer was measured as described[43] with a modification of preincubation time[44]: Briefly, Caco-2 cells were seeded onto Transwell inserts (#3379, Corning, Wiesbaden, Germany) at a density of 160000 cells/cm^2 and cultured in DMEM (high glucose) containing 10% fetal bovine serum for 14–21 days. Cells were incubated with culture media containing 1 µM test compound for 24 h. […] Samples were taken at different time points for up to 2 h. Test compound in the samples was quantified with LC-MS/MS. To elucidate the role of drug transporter P-gp in the transcellular transport, permeability measurement was performed in the absence and presence of the selective P-gp inhibitor zosuquidar (5 µM final concentration). Apparent permeability coefficients (Papp,AB, Papp,BA) were calculated as follows:1 Papp,AB=Q_AB/C0×s×t 2 Papp,BA=Q_BA/C0×s×t where Q is the amount of compound recovered in the receiver compartment after the incubation time t, C0 the initial compound concentration given to the donor compartment, and s the surface area of the Transwell inserts. Efflux ratio is calculated as the quotient of Papp,BA (mean of duplicate) to Papp,AB (mean of duplicate). […] In addition, Transepithelial electrical resistance (TEER) values were measured for each plate before the permeability assay. All three parameters (efflux of the reference substrates, Papp values of the low permeable compound, and TEER values) were used to ensure the quality of the assays.

[3] = molecular target: T1, PBRM1BD5 (Homo sapiens, UniProt P40337+Q86U86); experiment: TR-FRET ternary complex affinity and cooperativity, PBRM1; format: binding; conditions: TR-FRET competition for PBRM1BD5, + VCB; mean ± SD; read-out: TR-FRET Ternary PBRM1BD EC50 (PROTAC + VCB)
T1 construct: GST (TEV site) (N); His6 (TEV site) (N, cleaved yes); made in house; host or cells: PBRM1^BD5: Escherichia coli BL21(DE3)
T1 sequence (Q86U86 645-766): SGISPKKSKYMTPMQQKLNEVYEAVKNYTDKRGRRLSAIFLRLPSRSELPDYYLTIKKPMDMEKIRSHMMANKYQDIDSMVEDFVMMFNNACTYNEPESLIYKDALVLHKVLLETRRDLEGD
T1 sequence (P40337 54-213): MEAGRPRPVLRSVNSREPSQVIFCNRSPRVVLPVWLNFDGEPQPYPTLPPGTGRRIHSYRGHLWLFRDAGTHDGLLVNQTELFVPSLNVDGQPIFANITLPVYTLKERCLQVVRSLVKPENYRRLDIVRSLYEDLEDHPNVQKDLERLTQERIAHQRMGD
T1 sequence (Q15369 17-112 partner): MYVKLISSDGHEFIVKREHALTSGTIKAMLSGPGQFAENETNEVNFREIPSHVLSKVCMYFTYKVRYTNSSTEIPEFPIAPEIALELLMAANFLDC
T1 sequence (Q15370 1-104 partner): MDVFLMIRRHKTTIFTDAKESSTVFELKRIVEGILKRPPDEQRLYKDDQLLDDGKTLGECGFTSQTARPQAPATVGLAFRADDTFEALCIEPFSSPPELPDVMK

[4] = system: PBRM1BD5; experiment: as above; format: binding; conditions: ratio TR-FRET EC50 / TR-FRET EC50 +VCB measured in the same run, PBRM1BD5
[5] = Solubility testing; format: physicochemical; conditions: for solubility at 24 h: buffer, kinetic from dmso stock
Protocol: Dilution into a 1:1 mixture of acetonitrile and water was used as reference. After 24 h, the incubations were filtrated, and the filtrate was analyzed by LC-UV.

[6] = molecular target: VCB: PROTAC: SMARCA2^BD ternary complex (Homo sapiens, UniProt P40337+P51531); experiment: SPR ternary complex measurement, VCB immobilised, 10 µM SMARCA2^BD present; format: binding; set-up: P51531-2, residues 1373-1493 with additional N-terminal SM residues; His6 (TEV site) (N, cleaved yes); GST (TEV site) (N, cleaved yes); made in house; host or cells: SMARCA2^BD: Escherichia coli BL21(DE3); conditions: for Kd: SPR; for alpha: cooperativity, SMARCA2, ratio of KD values measured in the same run
Chain of VCB: PROTAC: SMARCA2^BD ternary complex (Homo sapiens, UniProt P40337+P51531) (P40337 54-213): as the sequence (P40337 54-213) above
Chain of VCB: PROTAC: SMARCA2^BD ternary complex (Homo sapiens, UniProt P40337+P51531) (Q15369 17-112 partner limits assumed): as the sequence (Q15369 17-112 partner) above
Chain of VCB: PROTAC: SMARCA2^BD ternary complex (Homo sapiens, UniProt P40337+P51531) (Q15370 1-104 partner limits assumed): as the sequence (Q15370 1-104 partner) above
Chain of VCB: PROTAC: SMARCA2^BD ternary complex (Homo sapiens, UniProt P40337+P51531) (P51531 1373-1493 isoform P51531-2): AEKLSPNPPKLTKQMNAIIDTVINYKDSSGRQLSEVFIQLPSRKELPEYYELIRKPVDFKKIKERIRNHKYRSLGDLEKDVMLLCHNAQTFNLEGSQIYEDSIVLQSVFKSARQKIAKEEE
Protocol: SPR data were acquired on Biacore 8K or T200 instruments (Cytiva). Target proteins were immobilised at 25 °C on CM5 chips by amine coupling (EDC/NHS, Cytiva) in HBS-P+ running buffer (pH 7.4), containing 2 mM TCEP. […] The reference surface was subsequently deactivated using 1 M ethanolamine. […] Biotinylated VCB was prepared as previously described[27]: in brief, the complex was mixed 1:1 with EZ-Link NHS–PEG4–biotin (Thermo Scientific) and incubated at room temperature for 1 h. Unreacted NHS-biotin was removed using a PD-10 desalting column (Cytiva) into 20 mM HEPES, pH 7.5, 150 mM sodium chloride and 1 mM DTT. The reference surface was generated by deactivating the EDC/NHS-treated surface with 1 M ethanolamine. All interaction experiments were done at 6 °C in running buffer (20 mM TRIS, pH 8.3, 150 mM potassium chloride, 2 mM magnesium chloride, 2 mM TCEP, 0.005% TWEEN 20, 1% dimethyl sulfoxide). For ternary complex measurements, a sensor chip surface with VCB immobilised was used (preparation as described above). Experiments were run in dual-inject mode with 10 µM SMARCA present during the injection and dissociation phase. Sensorgrams from reference surfaces and blank injections were subtracted from the raw data prior to data analysis using Biacore Insight software. Affinity and binding kinetic parameters were determined by global fitting using the 1:1 interaction model with a term for mass-transport included.

[7] = ternary complex with SMARCA2BD, mean ± SD
[8] = pH 4.5, aqueous buffer, pH 4.5, read-out: Solubility pH 4.5
[9] = pH 6.8, aqueous buffer, pH 6.8, read-out: Solubility pH 6.8

Compound | cooperativity α (SMARCA2BD) [1] | Caco-2 Pab ([2]; Caco-2) | Modified Caco-2 Efflux ratio ([2]; Modified Caco-2) | Modified Caco-2 Pab ([2]; Modified Caco-2) | Modified Caco-2 Pab + PGPi (Zosuquidar) [2] | Modified Caco-2 Pba + PGPi (Zosuquidar) [2] | EC50 [3] | cooperativity α (PBRM1BD) [4] | Solubility pH 6.8 ([5]; pH 6.8) | Kd [6, 7] | Kd ([6]; ternary, individual replicates) | alpha [6] | Caco-2 Efflux ratio ([2]; Caco-2) | Caco-2 Pba [2] | Modified Caco-2 Pba [2] | solubility at 24 h [5, 8] | solubility at 24 h [5, 9] | Caco-2 Pab ([2]; Caco-2, a to b) | Solubility pH 4.5 ([5]; pH 4.5)
Cc1ncsc1-c1ccc([C@H](COC(C)(C)CN2CCC(c3ccc4c(c3)n(C3CCCC3)c3nc(=O)c5c(Br)cccc5n43)CC2)NC(=O)[C@@H]2C[C@@H](O)CN2C(=O)[C@@H](NC(=O)C2(F)CC2)C(C)(C)C)cc1 [compound 28] | 3.8 ± 0.4 | 5 ± 2 10-6 cm/s | 37.037 and >37 | <7 10-6 cm/s | 11 ×10⁻⁶ cm/s and 13 ×10⁻⁶ cm/s | 14 ×10⁻⁶ cm/s | 4 ± 2 nM | 6.9 ± 1.9 | <1.000 <1.000 <1.000 <1.000 <1.000 ug/mL | 120 ± 34 nM | 82.7 nM and 149 nM and 127 nM | 0.5 |  |  |  |  |  |  | 
Cc1ncsc1-c1ccc([C@H](COC(C)CN2CCC(c3ccc4c(c3)n(C3CCCC3)c3nc(=O)c5c(Br)cccc5n43)CC2)NC(=O)[C@@H]2C[C@@H](O)CN2C(=O)[C@@H](NC(=O)C2(N(C)C)CC2)C(C)(C)C)cc1 (stereo partly shown) [compound 10] | 10.1 ± 3.8 | 6 10-6 cm/s | 36 |  |  |  | 8 ± 1 nM | 4.2 ± 0.4 | 2.000 ug/mL | 159 ± 80 nM | 74 nM and 233 nM and 171 nM | 0.8 | 5 | 21 ×10⁻⁶ cm/s | 99 ×10⁻⁶ cm/s and 88 ×10⁻⁶ cm/s | 210 µg/mL (≈ 195 µM) | < 1 µg/mL |  | 
Cc1ncsc1-c1ccc([C@H](COC(C)CN2CCC(c3ccc4c(c3)n(C3CCCC3)c3nc(=O)c5c(Br)cccc5n43)CC2)NC(=O)[C@@H]2C[C@@H](O)CN2C(=O)[C@@H](NC(=O)C2(F)CC2)C(C)(C)C)cc1 (stereo partly shown) [compound 9] | 7.0 ± 2.6 |  | 60.000 and 39 ± 21 |  | 11 ×10⁻⁶ cm/s and 14 ×10⁻⁶ cm/s | 18 ×10⁻⁶ cm/s | 7 ± 3 nM | 5.5 ± 1.7 |  | 210 ± 83 nM | 132 nM and 298 nM and 201 nM | 0.2 |  | 21 ×10⁻⁶ cm/s and 18 ×10⁻⁶ cm/s | 130 ×10⁻⁶ cm/s and 120 ×10⁻⁶ cm/s | 14 µg/mL (≈ 13.3 µM) | < 1 µg/mL |  | 
Cc1ncsc1-c1ccc(C(CCC(C)CCN2CCC(c3ccc4c(c3)n(C3CCCC3)c3nc(=O)c5c(Br)cccc5n43)CC2)NC(=O)C2CC(O)CN2C(=O)C(NC(=O)C2(F)CC2)C(C)(C)C)cc1 (stereo not shown) [ACBI2] | 4.6 ± 2.2 |  |  |  |  |  | 5 ± 1 nM | 13.8 ± 1.5 |  | 44 ± 11 nM | 35.8 nM and 56 nM and 41.1 nM | 0.8 |  |  |  | < 1 µg/mL | < 1 µg/mL |  | 
O=c1nc2n(C3CCCC3)c3ccccc3n2c2cccc(Br)c12 [compound 1] |  |  |  |  |  |  | 131 ± 8 nM |  |  |  |  |  | 0.8 |  |  | < 1 µg/mL | < 1 µg/mL | 3.09e-05 cm/s | 
Cc1ncsc1-c1ccc([C@H](CC[C@H](C)CCN2CCC(c3ccc4c(c3)n(C3CCCC3)c3nc(=O)c5c(Br)cccc5n43)CC2)NC(=O)[C@@H]2C[C@H](O)CN2C(=O)[C@@H](NC(=O)C2(F)CC2)C(C)(C)C)cc1 [compound 12] | 1.1 ± 0.3 |  |  |  |  |  | 78 ± 7 nM | 1.0 ± 0.0 |  |  |  |  |  |  |  | < 1 µg/mL | < 1 µg/mL |  | 
CN1CCN(c2nc(=O)c3c(I)cccc3o2)CC1 [compound 16] |  |  |  |  |  |  |  |  | >97.000 ug/mL |  |  |  |  |  |  |  |  |  | >97.000 ug/mL
Cc1ncsc1-c1ccc(CNC(=O)[C@@H]2C[C@@H](O)CN2C(=O)[C@@H](NC(=O)C2(F)CC2)C(C)(C)C)c(OCCOCCOCCOCCN2CCC(c3ccc4c(c3)n(C3CCCC3)c3nc(=O)c5c(Br)cccc5n43)CC2)c1 [compound 22] | 2.8 ±0.8 | <0.3 10-6 cm/s |  |  |  |  | 38 ± 5 nM | 2.6 ± 0.1 |  | 77 ± 14 nM | 66.2 nM and 92.4 nM and 71.3 nM | 0.5 |  |  |  |  |  | <2.78e-07 cm/s | 
CN1CCC(c2ccc3c(c2)n(C2CCCC2)c2nc(=O)c4c(Br)cccc4n32)CC1 [compound 3] |  |  |  |  |  |  | 31 ± 11 nM |  | > 110.000 ug/mL and 94.000 ug/mL |  |  |  | 0.8 |  |  | > 110 µg/mL | > 100 µg/mL | 2.83e-05 cm/s | > 100.000 ug/mL
CN1CCN(c2nc(=O)c3c(Cl)cccc3o2)CC1 [compound 13] |  | 93 10-6 cm/s |  |  |  |  |  |  | >71.000 ug/mL |  |  |  | 0.606 and 0.6 |  |  |  |  | 9.26e-05 cm/s | >70.000 ug/mL
Cc1ncsc1-c1ccc(CNC(=O)[C@@H]2C[C@H](O)CN2C(=O)[C@@H](NC(=O)C2(F)CC2)C(C)(C)C)c(OCCN2CCC(c3ccc4c(c3)n(C3CCCC3)c3nc(=O)c5c(Br)cccc5n43)CC2)c1 [compound 19] | 1.2 ± 0.1 |  |  |  |  |  | 40 ± 1 nM | 1.0 ± 0.1 | <1.000 ug/mL |  |  |  |  |  |  |  |  |  | <1.000 ug/mL
Nc1cccc2c1c(=O)nc1n(C3CCCC3)c3ccccc3n21 [compound 2] |  |  |  |  |  |  | 959 ± 53 nM |  |  |  |  |  | 0.5 |  |  | < 1 µg/mL | < 1 µg/mL | 3.7e-05 cm/s | 
CN1CCN(c2nc(=O)c3c(Br)cccc3o2)CC1 [compound 15] |  |  |  |  |  |  |  |  | >82.000 ug/mL |  |  |  |  |  |  |  |  |  | >83.000 ug/mL
